Here are results for five compounds from patent publication US20050192261A1, “Methods and reagents for the treatment of immunoinflammatory disorders” (priority 2003, published 2005).

Values joined by “and” are separate entries in the source; they are usually repeats but may differ in a detail not shown here. Equal entries are not always repeated. Structures can show the parent of a compound that is named as a salt. Where two headings read alike, the source gives them in different places.

For the experiment, the system named is TNFα secretion in white blood cells from human buffy coat stimulated with phorbol 12-myristate 13-acetate and ionomycin. The experiment in a line: TNFα secretion assay. To be noted: for inhibition at 0.2 µM: read-out: percent inhibition of TNFα secretion, Amoxapine 0.2 μM; for inhibition at 0.4 µM: read-out: percent inhibition of TNFα secretion, Amoxapine 0.4 μM; for inhibition at 0.8 µM: read-out: percent inhibition of TNFα secretion, Amoxapine 0.8 μM; for inhibition at 13 µM: read-out: percent inhibition of TNFα secretion, Amoxapine 13 μM; for inhibition at 25 µM: read-out: percent inhibition of TNFα secretion, Amoxapine 25 μM; for inhibition at 0.3 µM: read-out: % inhibition of TNFα secretion, Dipyridamole 0.3 μM; for inhibition at 19 µM: read-out: % inhibition of TNFα secretion, Dipyridamole 19 μM.

Where [1] appears, read: Homo sapiens, Bromodiphenhydramine HCl μM: 0/0.21/0.43/0.85/1.7/3.4/6.8/14/27.
The mark [2] stands for this setting: Homo sapiens, Cyproheptadine HCl μM: 0/0.24/0.48/0.96/1.9/3.9/7.7/15/31.
The mark [3] stands for this setting: Homo sapiens, Loratadine 0/0.2/0.41/0.82/1.6/3.3/6.5/13/26 μM.
[4] abbreviates: Homo sapiens, Thiethylperazine Maleate μM: 0/0.2/0.39/0.78/1.6/3.1/6.3/13/25.
Where [5] appears, read: Homo sapiens, Bromodiphenhydramine HCl μM r5-r13: 0,0.21,0.43,0.85,1.7,3.4,6.8,14,27.
Where [6] appears, read: Homo sapiens, Cyproheptadine HCl μM r5-r13: 0,0.24,0.48,0.96,1.9,3.9,7.7,15,31.
Where [7] appears, read: Homo sapiens, Loratadine μM r5-r13: 0,0.2,0.41,0.82,1.6,3.3,6.5,13,26.
Setting [8] is: Homo sapiens, Thiethylperazine Maleate μM r5-r13: 0,0.2,0.39,0.78,1.6,3.1,6.3,13,25.

Method: Drugs were added to the indicated concentration. […] The plate was then washed again with 0.1% Tween 20/PBS. An HRP-luminescent substrate was added to each well, and the light intensity of each well was measured using a plate luminometer.

As to `CNCCC(Oc1ccc(C(F)(F)F)cc1)c1ccccc1` (racemic) [Fluoxetine HCl, (±)-N-methyl-3-phenyl-3-[((alpha),(alpha),(alpha)-trifluoro-p-tolyl)oxy]propylamine hydrochloride], the inhibition at 0.9 µM (Homo sapiens, read-out: percent inhibition of TNFα secretion, Fluoxetine HCl 0.9 μM, Cyproheptadine HCl: 0/0.24/0.48/0.96/1.9/3.9/7.7/15/31 μM) was -1.1%. For the setting “Homo sapiens, read-out: percent inhibition of TNFα secretion, Fluoxetine HCl 14 μM, Cyproheptadine HCl: 0/0.24/0.48/0.96/1.9/3.9/7.7/15/31 μM”, the inhibition at 14 µM is 16%. For the same compound, under “Homo sapiens, read-out: percent inhibition of TNFα secretion, Fluoxetine HCl 29 μM, Cyproheptadine HCl: 0/0.24/0.48/0.96/1.9/3.9/7.7/15/31 μM”, the inhibition at 29 µM worked out at 41%. For the same compound, for the setting “Promethazine HCl 0 μM, Fluoxetine HCl μM r5-r13: 0,0.23,0.45,0.9,1.8,3.6,7.2,14,29, hydrochloride”, the “percent inhibition of TNFα secretion” value is 1.71% and −2.67% and 4.37% and 2.89% and −0.34% and −0.46% and −0.103% and 4.12%.
With `Clc1ccc2c(c1)C(N1CCNCC1)=Nc1ccccc1O2` [Amoxapine, amoxapine], under setting [1], the inhibition at 0.2 µM worked out at 4.3%, the inhibition at 0.4 µM is 13%, the inhibition at 0.8 µM was determined as 20% and the inhibition at 13 µM came out at 80%. Moreover, the inhibition at 25 µM under setting [1] was found to be 92%. Besides, under setting [2], the inhibition at 0.2 µM was 3.5%, the inhibition at 0.4 µM worked out at 9.8%, the inhibition at 0.8 µM stood at 17% and the inhibition at 13 µM was 85%. In addition, the inhibition at 25 µM under setting [2] amounted to 94%. Under setting [3], the inhibition at 0.2 µM is 7.52%, the inhibition at 0.4 µM is 11.2%, the inhibition at 0.8 µM was 22.2% and the inhibition at 13 µM stood at 83.7%. Further, under setting [3], the inhibition at 25 µM is 88.2%. Further, under setting [4], the inhibition at 0.2 µM is 12%, the inhibition at 0.4 µM came to 12%, the inhibition at 0.8 µM came to 24% and the inhibition at 13 µM turned out to be 74%. For the same compound, the inhibition at 25 µM under setting [4] was determined as 83%.
Take `CN(C)CCOC(c1ccccc1)c1ccc(Br)cc1` (stereo not shown) [Bromodiphenhydramine HCl, bromodiphenhydramine]: the inhibition at 14 µM (Homo sapiens, read-out: percent inhibition of TNFα secretion, Bromodiphenhydramine HCl 14 μM, Fluoxetine HCl μM: 0/0.23/0.45/0.9/1.8/3.6/7.2/14/29) is 39%. Under “Homo sapiens, read-out: percent inhibition of TNFα secretion, Bromodiphenhydramine HCl 27 μM, Fluoxetine HCl μM: 0/0.23/0.45/0.9/1.8/3.6/7.2/14/29”, the inhibition at 27 µM was 65.2%. For the same compound, under “Nortryptyline HCl 0 μM (Bromodiphenhydramine HCl alone), Bromodiphenhydramine HCl μM: 0/0.21/0.43/0.85/1.7/3.4/6.8/14/27”, the “percent inhibition of TNFα secretion” value is −15.
Turning to `Clc1ccc(Cn2c(CN3CCCC3)nc3ccccc32)cc1` [Clemizole HCl, clemizole], the inhibition at 14 µM is, setting by setting: (Homo sapiens, read-out: percent inhibition (dose matrix), Table 96, Clemizole HCl 14 μM, Amoxapine 0-25 μM) -11.9%; (Homo sapiens, read-out: percent inhibition (dose matrix), Table 97, Clemizole HCl 14 μM, Nortriptyline HCl 0-33 μM per row (c1)) 5.46%; (Homo sapiens, read-out: percent inhibition (dose matrix), Table 98, Clemizole HCl 14 μM, Paroxetine HCl 0-27 μM per row (c1)) 0.085%; (Homo sapiens, read-out: percent inhibition (dose matrix), Table 103, Clemizole HCl 14 μM, Fluoxetine HCl 0-29 μM) 9.15%; (Homo sapiens, read-out: percent inhibition (dose matrix), Table 107, Clemizole HCl 14 μM, Desipramine HCl 0-32 μM per row (c1)) 3.19%; (Homo sapiens, read-out: percent inhibition (dose matrix), Table 108, Clemizole HCl 14 μM, Sertraline HCl 0-32 μM per row (c1)) 4.65%. In addition, the inhibition at 14 µM was 20% (Homo sapiens, read-out: percent inhibition of TNFα secretion, Clemizole HCl 14 μM, Amoxapine μM r5-r13: 0,0.2,0.4,0.8,1.6,3.2,6.4,13,25); 26.4% (Homo sapiens, read-out: percent inhibition of TNFα secretion, Clemizole HCl 14 μM, Desipramine HCl: 0/0.25/0.5/1/2/4/8/16/32 μM); 26.1% (Homo sapiens, read-out: percent inhibition of TNFα secretion, Clemizole HCl 14 μM, Fluoxetine HCl μM: 0/0.23/0.45/0.9/1.8/3.6/7.2/14/29); 22.4% (Homo sapiens, read-out: percent inhibition of TNFα secretion, Clemizole HCl 14 μM, Paroxetine HCl μM r5-r13: 0,0.21,0.42,0.83,1.7,3.3,6.7,13,27); 24.5% (Homo sapiens, read-out: percent inhibition of TNFα secretion, Clemizole HCl 14 μM, Sertraline HCl by grid row r5-r13: 0/0.25/0.49/0.99/2/4/7.9/16/32 μM). For the same compound, the inhibition at 28 µM (Homo sapiens, read-out: percent inhibition (dose matrix), Table 96, Clemizole HCl 28 μM, Amoxapine 0-25 μM) came to 0.658%; the inhibition at 28 µM (Homo sapiens, read-out: percent inhibition (dose matrix), Table 97, Clemizole HCl 28 μM, Nortriptyline HCl 0-33 μM per row (c1)) was 19.5%; the inhibition at 28 µM (Homo sapiens, read-out: percent inhibition (dose matrix), Table 98, Clemizole HCl 28 μM, Paroxetine HCl 0-27 μM per row (c1)) is -7.43%; the inhibition at 28 µM (Homo sapiens, read-out: percent inhibition (dose matrix), Table 103, Clemizole HCl 28 μM, Fluoxetine HCl 0-29 μM) is 9.27%; the inhibition at 28 µM (Homo sapiens, read-out: percent inhibition (dose matrix), Table 107, Clemizole HCl 28 μM, Desipramine HCl 0-32 μM per row (c1)) is 14.9%; the inhibition at 28 µM (Homo sapiens, read-out: percent inhibition (dose matrix), Table 108, Clemizole HCl 28 μM, Sertraline HCl 0-32 μM per row (c1)) is 16.9%. For the same compound, the inhibition at 28 µM was 42.5% (Homo sapiens, read-out: percent inhibition of TNFα secretion, Clemizole HCl 28 μM, Amoxapine μM r5-r13: 0,0.2,0.4,0.8,1.6,3.2,6.4,13,25); 41.4% (Homo sapiens, read-out: percent inhibition of TNFα secretion, Clemizole HCl 28 μM, Desipramine HCl: 0/0.25/0.5/1/2/4/8/16/32 μM); 34.1% (Homo sapiens, read-out: percent inhibition of TNFα secretion, Clemizole HCl 28 μM, Fluoxetine HCl μM: 0/0.23/0.45/0.9/1.8/3.6/7.2/14/29); 42.1% (Homo sapiens, read-out: percent inhibition of TNFα secretion, Clemizole HCl 28 μM, Paroxetine HCl μM r5-r13: 0,0.21,0.42,0.83,1.7,3.3,6.7,13,27); 43.3% (Homo sapiens, read-out: percent inhibition of TNFα secretion, Clemizole HCl 28 μM, Sertraline HCl by grid row r5-r13: 0/0.25/0.49/0.99/2/4/7.9/16/32 μM). Moreover, the “inhibition of TNFα secretion” value (prednisolone […], clemizole HCl r5-r13: 0,0.22,0.43,0.86,1.7,3.5,6.9,14,28 μM) was 28.
Take `OCCN(CCO)c1nc(N2CCCCC2)c2nc(N(CCO)CCO)nc(N3CCCCC3)c2n1` [Dipyridamole]: the inhibition at 0.3 µM is, setting by setting: under setting [5], 0.92%; under setting [6], -0.27%; under setting [7], 9.6%; under setting [8], 7%. In addition, the inhibition at 19 µM under setting [5] is 71%, the inhibition at 19 µM under setting [6] was 63%, the inhibition at 19 µM under setting [7] stood at 70% and the inhibition at 19 µM under setting [8] came to 71%.

Usually inhibition stands for the change of the read-out against control, counted positive when it falls.
